From PMC7033572, “Cytochrome P450-Based Drug-Drug Interactions of Vonoprazan In Vitro and In Vivo” (Frontiers in Pharmacology, 2020)
Entries after “also recorded” stand apart in the source; their conditions may differ.

Key:
in vivo = test: in vivo
Excerpt: The mobile phase comprising acetonitrile (A) and 0.1% formic acid water (B) was set with a 0.40-ml/min flow rate. […] MassLynx 4.1 software (Waters Corp., Milford, MA, USA) was used for data acquisition, and the UPLC-MS/MS chromatogram of blank plasma that was spiked with probe drugs and metabolites is shown below ( Figure 1 ).
Ten specific pathogen-free (SPF) grade Sprague–Dawley rats (male, 220 ± 20 g) were provided by Wenzhou Medical University Laboratory Animal Research Center. This study was carried out in accordance with the principles of the Basel Declaration and recommendations of Wenzhou Medical University Administration Committee of Experimental Animals. The protocol was approved by the Wenzhou Medical University Administration Committee of Experimental Animals (ID Number: wydw2019-650). Ten rats were randomly divided into two groups: the vonoprazan group (n = 5) and control group (n = 5). Both groups were fasted overnight before experiments but were allowed water all the time. The six probe drug mixtures and vonoprazan were dissolved in 0.5% carboxy methyl cellulose sodium (CMC-Na), respectively. The vonoprazan group was administered 5 mg/kg of vonoprazan for 14 days. The control group was administered 0.5% CMC-Na.
Next, the samples were collected into 1.5-ml centrifuge tubes and were immediately centrifuged for 10 min at 4,000 rpm speed. For every 100 µl of rat plasma was added with 200 µl of acetonitrile in 0.5 μg/ml of IS was added, followed by vortex mixing for one minute. […] In vitro DDI detection system, the pH was 7.4 and the component of buffer was consisted of 100 mM potassium phosphate.
The GraphPad (version 7.0; GraphPad Software Inc., San Diego, CA, USA) was applied to calculate IC50 values and plot plasma concentration-time curves. The pharmacokinetic parameters using noncompartmental analysis was calculated by DAS (version 3.2.8; Wenzhou Medical University, China). Statistical comparisons within groups were conducted by SPSS (version 25.0; SPSS Inc., Chicago, IL, USA), using Student's t-test.

CYP3A4 = test: Reversible inhibition of midazolam metabolism by vonoprazan in rat liver microsomes (probe cocktail, UPLC-MS/MS); type: in vitro ADME; conditions: pH 7.4, probe midazolam (5 μM), rat liver microsomes 0.5 mg/ml, n = 3
Method: (§1) The pooled rat liver microsomes (RLMs) obtained from eight rats, which were weighed and homogenized with cold […] phosphate-buffered saline (PBS), containing […]. After centrifugation for 15 min at 11,000 rpm, the supernatants were separated and transferred into new tubes for another 15-min centrifugation at 11,000 rpm. Next, ultracentrifugation was performed at […] at 4°C for 1 h., and the microsomal pellets were resuspended with cold […] PBS and stored at −80°C ([Wang et al., 2015]). The protein concentration of RLMs was determined using the Bradford Protein Assay Kit (Thermo Scientific, Waltham, MA, USA).
(§2) Next, vonoprazan was applied as the inhibitor to determine the half maximal inhibitory concentration (IC50). […]. After preincubation in a shaking water bath at 37°C for 5 min, an NADPH-regenerating system was added to initiate the reaction in a final volume of 200 μl. The reaction was performed for 30 min, and was stopped by cooling to −80°C immediately. Next, 20 μl of internal standard (IS) working solution and 200 μl of acetonitrile were added. Centrifugation was performed at 13,000 rpm for 5 min after vortexing for 1 min. The supernatant mixture (2 μl) was injected into the UPLC–MS/MS system for analysis.

CYP2C9 = test: Reversible inhibition of tolbutamide metabolism by vonoprazan in rat liver microsomes (probe cocktail, UPLC-MS/MS); type: in vitro ADME; conditions: pH 7.4, probe tolbutamide (10 μM), IC50 of vonoprazan on tolbutamide metabolism (CYP2C9), rat liver microsomes 0.5 mg/ml, n = 3
Method: as §1, §2

CYP2D6 = test: Reversible inhibition of dextromethorphan metabolism by vonoprazan in rat liver microsomes (probe cocktail, UPLC-MS/MS); type: in vitro ADME; conditions: pH 7.4, probe dextromethorphan (100 μM), rat liver microsomes 0.5 mg/ml, n = 3
Method: as §1, §2

CYP2B6 = test: Reversible inhibition of bupropion metabolism by vonoprazan in rat liver microsomes (probe cocktail, UPLC-MS/MS); type: in vitro ADME; conditions: pH 7.4, probe bupropion (20 μM)
Method: as §1, §2

CYP1A2 = biological target: T1, CYP1A2 (Rattus norvegicus, UniProt P04799); test: Reversible inhibition of phenacetin metabolism by vonoprazan in rat liver microsomes (probe cocktail, UPLC-MS/MS); type: in vitro ADME; conditions: vonoprazan 1-100 μM, phenacetin 40 μM
T1 construct: contained 0.5 mg/ml of RLMs; from tissue; host or cells: pooled rat liver microsomes
T1 sequence (P04799 1-513): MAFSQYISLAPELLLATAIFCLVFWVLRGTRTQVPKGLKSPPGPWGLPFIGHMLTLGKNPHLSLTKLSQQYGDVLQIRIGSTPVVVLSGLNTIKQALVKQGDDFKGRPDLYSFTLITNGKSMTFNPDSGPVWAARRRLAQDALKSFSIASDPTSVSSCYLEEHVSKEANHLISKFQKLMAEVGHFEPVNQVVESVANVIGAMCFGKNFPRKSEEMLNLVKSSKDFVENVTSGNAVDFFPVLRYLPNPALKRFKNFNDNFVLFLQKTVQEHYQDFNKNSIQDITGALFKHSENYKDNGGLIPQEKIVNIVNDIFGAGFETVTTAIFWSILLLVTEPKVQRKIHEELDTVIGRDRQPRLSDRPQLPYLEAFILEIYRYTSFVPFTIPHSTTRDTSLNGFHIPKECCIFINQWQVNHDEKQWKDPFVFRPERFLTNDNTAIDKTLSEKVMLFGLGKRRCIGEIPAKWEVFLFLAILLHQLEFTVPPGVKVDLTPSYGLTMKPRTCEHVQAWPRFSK
Method: as §1, §2

[1] = set-up: method as in Kogame et al., 2017; conditions: rats; ref Kogame et al., 2017; cited from earlier work
[2] = male, Sprague-Dawley, rat, in vivo
[3] = male, Sprague-Dawley, rat, in vivo, po, 10 mg/kg
[4] = male, Sprague-Dawley, rat, in vivo, po
[5] = rats, Student's t-test, P < 0.05
[6] = rats, vonoprazan group vs control group

CC(NC(C)(C)C)C(=O)c1cccc(Cl)c1 (stereo not shown) [Bupropion]
Decrease of CLz/F by vonoprazan (in vivo; [2]): 70.6%
Decrease of Vz/F by vonoprazan (in vivo; [2]): 53.3%
Increase of AUC0→t compared with the control group (in vivo; [2]): 2.17 fold
Increase of AUC0→∞ compared with the control group (in vivo; [2]): 2.30 fold
Increase of Cmax by addition of vonoprazan (in vivo; [2]): 2.33 fold
AUC(0-inf) (in vivo; [3]): 243 ± 107 ng·h/mL
AUC(0-t) (in vivo; [3]): 242 ± 106 ng·h/mL
CL/F (in vivo; [3]): 863 mL/min/kg
Cmax (in vivo; [3]): 97.1 ± 55.5 ng/mL
MRT inf (in vivo; [3]): 2.78 ± 0.57 h
MRT last (in vivo; [3]): 2.72 ± 0.51 h
Tmax (in vivo; [3]): 0.37 ± 0.36 h
Vd/F (in vivo; [3]): 99.1 ± 53.7 L/kg
half-life (in vivo; [3]): 1.38 ± 0.25 h

COc1ccc2c(c1)[C@]13CCCC[C@@H]1[C@H](C2)N(C)CC3 [Dextromethorphan]
CL/F (in vivo; [4]): 532 mL/min/kg
Tmax (in vivo; [4]): 0.75 ± 0.77 h
Vd/F (in vivo; [4]): 125 ± 88.5 L/kg
half-life (in vivo; [4]): 2.61 ± 1.47 h
Difference in pharmacokinetic parameters after vonoprazan administration compared with the control group (in vivo; [5]): significant differences
Decrease of CLz/F by vonoprazan (in vivo; [6]): 61.0%
Increase of AUC0→t compared with the control group (in vivo; [6]): 1.52 fold
Increase of AUC0→∞ compared with the control group (in vivo; [6]): 1.50 fold
Increase of Cmax by addition of vonoprazan (in vivo; [6]): 1.87 fold

Cc1ncc2n1-c1ccc(Cl)cc1C(c1ccccc1F)=NC2 [Midazolam]
AUC(0-inf) (in vivo; [3]): 657 ± 198 ng·h/mL
AUC(0-t) (in vivo; [3]): 625 ± 194 ng·h/mL
CL/F (in vivo; [3]): 282 mL/min/kg
Cmax (in vivo; [3]): 335 ± 191 ng/mL
MRT inf (in vivo; [3]): 2.34 ± 1.12 h
MRT last (in vivo; [3]): 1.9 ± 0.6 h
Tmax (in vivo; [3]): 0.18 ± 0.09 h
Vd/F (in vivo; [3]): 39.4 ± 20.4 L/kg
half-life (in vivo; [3]): 1.85 ± 1.18 h
Difference in pharmacokinetic parameters after vonoprazan administration compared with the control group (in vivo; [5]): significant differences
Difference in pharmacokinetic parameters after vonoprazan administration compared with the control group (in vivo; rats, Student's t-test, P < 0.05, listed as midazolam): significant
Decrease of CLz/F by vonoprazan (in vivo; [6]): 54.7%
Increase of AUC0→t compared with the control group (in vivo; [6]): 1.17 fold
Increase of AUC0→∞ compared with the control group (in vivo; [6]): 1.25 fold
Increase of Tmax by addition of vonoprazan (in vivo; [6]): 1.50 fold

CCOc1ccc(NC(C)=O)cc1 [Phenacetin]
AUC(0-inf) (in vivo; [3]): 5040 ng·h/mL
AUC(0-t) (in vivo; [3]): 5040 ng·h/mL
CL/F (in vivo; [3]): 37.5 mL/min/kg
Cmax (in vivo; [3]): 3870 ng/mL
MRT inf (in vivo; [3]): 1.13 ± 0.21 h
MRT last (in vivo; [3]): 1.12 ± 0.2 h
Tmax (in vivo; [3]): 0.3 ± 0.11 h
Vd/F (in vivo; [3]): 1.97 ± 0.81 L/kg
Difference in pharmacokinetic parameters after vonoprazan administration compared with the control group (in vivo; rat, in vivo): not significantly different

CCCCNC(=O)NS(=O)(=O)c1ccc(C)cc1 [Tolbutamide]
Increase of AUC0→t compared with the control group (in vivo; [2]): 0.86 fold
Increase of AUC0→∞ compared with the control group (in vivo; [2]): 0.83 fold
Increase of Cmax by addition of vonoprazan (in vivo; [2]): 0.67 fold
CL/F (in vivo; [4]): 0.167 mL/min/kg
Tmax (in vivo; [4]): 3 ± 1 h
Vd/F (in vivo; [4]): 0.03 ± 0.01 L/kg
half-life (in vivo; [4]): 4.99 ± 1.56 h

CCCCNC(=O)NS(=O)(=O)c1ccc(C)cc1 [Vonoprazan + tolbutamide]
CLz/F (in vivo; rat, in vivo, po): 0.033 ± 0.017 mL/min/kg
Tmax (in vivo; rat, in vivo, po): 3.60 ± 1.34 h
Vz/F (in vivo; rat, in vivo, po): 0.0140 ± 0.0020 L/kg
t1/2z (in vivo; rat, in vivo, po): 4.83 ± 1.27 h

CNCc1cc(-c2ccccc2F)n(S(=O)(=O)c2cccnc2)c1 [vonoprazan, Vonoprazan]
IC50 at 30 min (CYP2C9): 18.3 µM
IC50 at 30 min (CYP2D6): 3.62 µM
IC50 at 30 min (CYP2B6): 3.68 µM
Inhibition of phenacetin metabolism (CYP1A2) by vonoprazan (CYP1A2): no inhibition; also recorded: no effect
